Laboratory results reported in patent publication US20070134261A1, “Effectors of innate immunity” (priority 2001, published 2007).
Values after ≈ are worked out from the molar mass of the structure shown. Starred links: 1 amine or outer side, 2 acyl side, 3 side chain; linkers in the order of their positions; H or OH if unused. Positions of bridges follow the written chain, without caps; N, C: chain ends. Non-standard residues stand in square brackets, D forms with d. Residues, ends and D or L forms follow the SMILES beside them. Chains are numbered I, II in the order given. Actinocin(9to1) = Cc1c2oc3c(C)ccc(C(=O)[*:1])c3nc-2c(C(=O)[*:2])c(N)c1=O; NMeV = CN[C@H](C(=O)O)C(C)C; Sar = CNCC(=O)O

Tests used:
[1] = tested on: THP-1 cells; test: Quantitative real-time PCR (qPCR) in THP-1 cells; assay type: cell-based, human; settings: 4 μg/ml, within 1 hour of treatment (data not shown)
Method: Quantitative real-time PCR (qPCR)—Differential gene expression identified by microarray analysis was validated using quantitative real-time PCR (qPCR) using SuperScriptTM III Platinum® Two-Step qRT-PCR Kit with SYBR® Green (Invitrogen Life Technologies), as per the manufacturer's instructions, in the ABI PRISMS® 7000 sequence detection system (Applied Biosystems, Foster city, Calif., USA). Briefly, 1 μg of total RNA was reverse transcribed in a 20 μl reaction volume for 50 min at 42° C., the reaction was terminated by incubating for 5 min at 85° C. and then digested for 30 min at 37° C. with RNAse H. The PCR reaction was carried out in a 12.5 μl reaction volume containing 2.5 μl of 1/10 diluted cDNA template. A melting curve was performed to ensure that any product detected was specific to the desired amplicon. Fold changes were calculated after normalization to endogenous GAPDH and using the comparative Ct method (Pfaffl MW. A new mathematical model for relative quantification in real-time RT-PCR. Nucleic Acids Res 2001; 29:No. 9 e45).

[2] = tested on: Human monocytic cells, THP-1; test: LPS-induced TNFα secretion by THP-1 cells (ELISA); settings: 4 μg/ml; LPS-stimulated THP-1 cells
[3] = tested on: THP-1 cells
[4] = tested on: human bronchial epithelial cells (HBE); test: LDH release assay (Cytotoxicity Detection Kit); assay type: cell-based; settings: 100 μg/ml, 24 hours; no peptide control 1.0 ± 0.05
Summary of the method: (§1)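 Both read-outs were colorimetric at OD490 on HBE cells after 24 h with 100 μg of each peptide. The WST-1 assay reported viability through mitochondrial dehydrogenase cleavage of the tetrazolium salt. The LDH assay tested the removed supernatant for enzyme leaked from membrane-damaged cells.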

[5] = tested on: HBE cells; settings: 50 μg/ml, 4 h
[6] = tested on: HBE cells; test: WST-1 assay (cell viability); assay type: cell-based, human
Summary of the method: as §1

[7] = assay type: cell-based; settings: overnight, 96-well plate
[8] = tested on: RAW 264.7 mouse macrophage cells; assay type: cell-based; settings: 20 μg/ml; 1 μg/ml AraLAM
Method: The ability of compounds to neutralize the stimulation of immune cells by both Gram-negative and Gram-positive bacterial products was tested. Bacterial products stimulate cells of the immune system to produce inflammatory cytokines and when unchecked this can lead to sepsis. Initial experiments utilized the murine macrophage cell line RAW 264.7, which was obtained from the American Type Culture Collection, (Manassas, Va.), the human epithelial cell line, A549, and primary macrophages derived from the bone marrow of BALB/c mice (Charles River Laboratories, Wilmington, Mass.). The cells from mouse bone marrow were cultured in 150-mm plates in Dulbecco's modified Eagle medium (DMEM; Life Technologies, Burlington, ON) supplemented with 20% FBS (Sigma Chemical Co, St. Louis, Mo.) and 20% L cell-conditioned medium as a source of M-CSF. Once macrophages were 60-80% confluent, they were deprived of L cell-conditioned medium for 14-16 h to render the cells quiescent and then were subjected to treatments with 100 ng/ml LPS or 100 ng/ml LPS+20 μg/ml peptide for 24 hours. The release of cytokines into the culture supernatant was determined by ELISA (R&D Systems, Minneapolis, Minn.). […] The samples were centrifuged for 5 min at 2000×g, the plasma was collected and then stored at −20° C. until being analyzed for IL-8 by ELISA (R&D Systems). […] Survival was monitored for 48 hours post injection.

[9] = tested on: NFκB subunits; test: Translocation of NFκB subunits in nuclear extracts of THP-1 cells (Western blot, ELISA); assay type: cell-based, human; settings: 60 min

## Cc1c2oc3c(C)ccc(C(=O)N[C@@H]4C(=O)N[C@H](C(C)C)C(=O)N5CCC[C@H]5C(=O)N(C)CC(=O)N(C)[C@@H](C(C)C)C(=O)O[C@@H]4C)c3nc-2c(C(=O)N[C@@H]2C(=O)N[C@H](C(C)C)C(=O)N3CCC[C@H]3C(=O)N(C)CC(=O)N(C)[C@@H](C(C)C)C(=O)O[C@@H]2C)c(N)c1=O [Actinomycin D] (I: T[dV]P[Sar][NMeV] / II: T[dV]P[Sar][NMeV]; ester I:1-I:C, II:1-II:C; linker I:N-II:N via Actinocin(9to1))
[1]
  inhibition of LPS-induced transcription of TNFα and TNFAIP2 genes: more than 96%
[2]
  reduction of TNFα release: 97.6%

## CC[C@H](C)[C@H](NC(=O)[C@H](CCCCN)NC(=O)[C@H](CCC(=O)O)NC(=O)[C@H](CCCCN)NC(=O)[C@H](CO)NC(=O)[C@H](CCCCN)NC(=O)[C@H](CCCNC(=N)N)NC(=O)[C@H](Cc1ccccc1)NC(=O)[C@H](Cc1ccccc1)NC(=O)[C@H](CC(=O)O)NC(=O)CNC(=O)[C@H](CC(C)C)NC(=O)[C@@H](N)CC(C)C)C(=O)NCC(=O)N[C@@H](CCCCN)C(=O)N[C@@H](CCC(=O)O)C(=O)N[C@@H](Cc1ccccc1)C(=O)N[C@@H](CCCCN)C(=O)N[C@@H](CCCNC(=N)N)C(=O)N[C@H](C(=O)N[C@H](C(=O)N[C@@H](CCC(N)=O)C(=O)N[C@@H](CCCNC(=N)N)C(=O)N[C@H](C(=O)N[C@@H](CCCCN)C(=O)N[C@@H](CC(=O)O)C(=O)N[C@@H](Cc1ccccc1)C(=O)N[C@@H](CC(C)C)C(=O)N[C@@H](CCCNC(=N)N)C(=O)N[C@@H](CC(N)=O)C(=O)N[C@@H](CC(C)C)C(=O)N[C@H](C(=O)N1CCC[C@H]1C(=O)N[C@@H](CCCNC(=N)N)C(=O)N[C@H](C(=O)N[C@@H](CCC(=O)O)C(=O)N[C@@H](CO)C(=O)O)[C@@H](C)O)C(C)C)[C@@H](C)CC)C(C)C)[C@@H](C)CC [SEQ ID NO: 1, reference compound]
[3]
  cytotoxicity: not cytotoxic
[4]
  LDH Release (OD490 nm): 1.18 ± 0.05 OD490 nm
[5]
  Ratio of SEQ ID NO: 1-treated:control, L41559 6-pyruvoyl-tetrahydropterin synthase/dimerization cofactor of hepatocyte nuclear factor 1 alpha: 0.20
  Ratio of SEQ ID NO: 1-treated:control, NM_000120 epoxide hydrolase 1, microsomal: 0.22
[6]
  OD490 nm (WST-1 cell viability): 1.62 ± 0.34 OD490 nm
[7]; Citobacter rhodensis
  MIC, C. rhod.: 8 µg/mL (≈ 1.78 µM)
[7]; Enterohaemorrhagic E. coli
  MIC, EHEC: 4 µg/mL (≈ 0.89 µM)
[7]; Escherichia coli
  MIC, E. coli: 32 µg/mL (≈ 7.12 µM)
[7]; Pseudomonas aeruginosa
  MIC, P. aerug.: 96 µg/mL (≈ 21.4 µM)
[7]; Salmonella enteritidis ssp. typhimurium
  MIC, S. typhim.: 64 µg/mL (≈ 14.2 µM)

## Polymyxin B
[4]
  LDH Release (OD490 nm): 1.21 ± 0.03 OD490 nm
[8]
  Inhibition of TNF-α: 15 ± 2%
[6]
  OD490 nm (WST-1 cell viability): 1.30 ± 0.13 OD490 nm
[9]
  inhibition of LPS-induced p50 translocation: 82±5%
  inhibition of LPS-induced p65 translocation: 80±90%
